According to patent US6613304B2, “Radiometal complexes of 2-pyrrolylthiones and their use as radiopharmaceuticals for imaging and therapy” (University of British Columbia, priority 2000, dated 2003):
Entries after “also recorded” stand apart in the source; their conditions may differ.

Tests used:
[1] = cited from earlier work
[2] = cited from earlier work; for clearance relative to OIH: % of that of OIH
[3] = Stability towards oxidation; type: physicochemical; details: for stability towards oxidation: in solid state and in solution
[4] = Renal imaging: scintigraphic biodistribution of Tc-99m complexes in rats; type: in vivo, male Sprague and Dawley rats; details: for accumulation in the cortex: 1.5 min post injection, very fast linear accumulation; for scintigraphic image of the kidneys: one hour post injection, FIG. 5
Procedure: A group of 3 male Sprague and Dawley rats were anaesthetised by intra-muscluar administration of a mixture of Ketamine Xylazine (1 ml/Kg). A 26 guage Butterfly was introduced into the lateral tail vein and filled with heparinised physiological saline. The animals were injected with the indicated radiopharmaceutical, in the minutes following the beginning of the acquisition.
Dose activities were measured in an Accucal 2001 dose calibrator Nuclear Pharmacy Inc. (Albuquerque, N. Mex., U.S.A). Scvintigraphic mages were recorded with a Starcam 4000i XRT Gamma camera General Electric (Saint Albans, UK) equipped with a parallel, medium energy, high resolution collimator. Image analysis was performed on a Genie PNR model nuclear medicine dedicated computer General Electric (Saint Albans, UK).
The camera was set to record a series of 32 images at 1 min intervals each, the animals were injected successively starting from animal A after the camera was started. All injections were finished within the first one and a half minute. Following each injection the catheter was flushed with 0.5 ml of physiological saline. Following this first acquisition a second dynamic acquisition was recorded at a rate of one image every 10 minutes. The animals woke up 90 min after injection at which time the study was terminated.
For analysis, the areas of interest were traced around the organs of interest (right and left kidneys for the first dynamic study; and heart, left kidney and bladder at image 60 min. post-injection on the second study) and the whole body of the rats. The result were expressed as counts per seconds or as percent of the whole body activity at a given time, and are presented in FIGS. 5-9.

[5] = healthy subjects; cited from earlier work

O=C([O-])CN=C([O-])CN=C([O-])CN=C([O-])C[S-].[O-2].[Tc+4] [Tc-99m-MAG3, ^99mTc-mercaptoacetyltriglycine]
plasma protein binding [1]: very high | clearance relative to OIH [2]: 50-60% | injected dose found in the kidneys ([2]; a few minutes post injection): 1-2%

Bis(2,2′-dipyrrolylthionato) ^99g Tc]oxotechnetium [compound 6]
stability towards oxidation [3]: stable towards oxidation

^99mTcO-disulfo-di-2-pyrrolylthionate [compound 9]
accumulation in the cortex [4]: 20% | excretion rate as evaluated by measuring the activity found in the bladder ([4]; 1 hour post-injection): best excretion rate | detected radioactivity in the kidneys reaching a plateau ([4]; as compared to DMSA, FIGS. 6-8): reach a plateau more rapidly | scintigraphic image of the kidneys ([4]; listed as TcSL-11): better resolved the kidneys; also recorded: kidneys are well visualised | accumulation in the cortex at plateau ([4]; plateau at about 35 min to 1 hour post injection): 22%

^99mTcO-tetrasulfo-di-2-pyrrolylthionate [compound 10]
accumulation in the cortex [4]: 20% | excretion rate as evaluated by measuring the activity found in the bladder ([4]; 1 hour post-injection): best excretion rate

Bis(p-methoxyphenyl-2-pyrrolylthionato) [^99g Tc]oxotechnetium [compound 7]
stability towards oxidation [3]: stable towards oxidation

COc1ccc(C(=S)c2ccc[nH]2)cc1OC [3,4-dimethoxyphenyl-2-pyrrolylthione, 3,4-Dimethoxyphenyl-2-pyrrolylthione]
stability at room temperature ([3]; atmospheric oxygen): unstable at room temperature

Bis(3,4-dimethoxyphenyl-2-pyrrolylthionato) [99g Tc]oxotechnetium [compound 8]
stability towards oxidation [3]: stable towards oxidation

Nc1ccc(C(=O)NCC(=O)O)cc1 [PAH, p-aminohippurate]
extracted from the renal arterial plasma in a single pass through the renal parenchyma ([2]; in vivo): ~90%

Tc-99m-dimercaptosuccinic acid [DMSA, reference compound]
activity in the calyx area ([4]; 1 hour post-injection): significant activity in the calyx area | blood clearance (heart area used as a measure of blood activity) ([4]; 1 hour post-injection): more rapidly cleared | overall kidney uptake ([4]; 1 hour post-injection, left kidney only): highest activity | scintigraphic image of the kidneys [4]: kidneys are well visualised | plasma protein binding [1]: almost completely bound to the proteins | steady level of renal uptake, of the activity administered [5]: ~30% | time after injection until which renal activity increases [5]: 6 to 8 h

O=C(O)CNC(=O)c1ccc(NC(=O)CN(CC(=O)O)CC(=O)O)cc1 [PAHIDA, p-[(biscarboxymethylaminomethyl)carbamino]hippuric acid]
clearance relative to OIH [2]: less than 50%
